B1: rhANGPTL3: recombinant human ANGPTL3 (3829-AN) from R&D Systems (protein, UniProt Q9Y5C1 17-460, looked up)
Angiopoietin-related protein 3: SRIDQDNSSFDSLSPEPKSRFAMLDDVKILANGLLQLGHGLKDFVHKTKGQINDIFQKLNIFDQSFYDLSLQTSEIKEEEKELRRTTYKLQVKNEEVKNMSLELNSKLESLLEEKILLQQKVKYLEEQLTNLIQNQPETPEHPEVTSLKTFVEKQDNSIKDLLQTVEDQYKQLNQQHSQIKEIENQLRRTSIQEPTEISLSSKPRAPRTTPFLQLNEIRNVKHDGIPAECTTIYNRGEHTSGMYAIRPSNSQVFHVYCDVISGSPWTLIQHRIDGSQNFNETWENYKYGFGRLDGEFWLGLEKIYSIVKQSNYVLRIELEDWKDNKHYIEYSFYLGNHETNYTLHLVAITGNVPNAIPENKDLVFSTWDHKAKGHFNCPEGYSGGWWWHDECGENNLNGKYNKPRAKSKPERRRGLSWKSQNGRLYSIKSTKMLIHPTDSESFE
B2: rhANGPTL8: recombinant human ANGPTL8 (9983-AN) from R&D Systems (protein, UniProt Q6UXH0 22-198, looked up)
Angiopoietin-like protein 8: APMGGPELAQHEELTLLFHGTLQLGQALNGVYRTTEGRLTKARNSLGLYGRTIELLGQEVSRGRDAAQELRASLLETQMEEDILQLQAEATAEVLGEVAQAQKVLRDSVQRLEVQLRSAWLGPAYREFEVLKAHADKQSHILWALTGHVQRQRREMVAQQHRLRQIQERLHTAALPA

Key:
[1] = system: HDMECs infected with Nm 2C4.3; assay: Integrity of HDMEC monolayers infected with N. meningitidis (VE-cadherin at intercellular junctions, immunofluorescence); format: cell-based, human; conditions: 1 μg/mL added 30 min after initiation of Nm infection, 2 h 30
Protocol: FIG. 1. Exogenous ANGPTL4 exerts protective effects on dermal microvascular endothelial cells infected by N. meningitidis. A. HDMECs were infected with Nm 2C4.3 for 30 min and treated with 1 μg/mL of recombinant human ANGPTL4 for 2 h 30. Cells were fixed and stained for cellular actin, VE-cadherin and DAPI and analyzed by fluorescent microscopy. Quantifications of VE-cadherin enrichment at intercellular junctions and of intercellular spaces area were performed on 30 fields with Image J software. Kruskal-Wallis test ** P<0.001; P<0.0001. B. HDMEC were either uninfected or infected with N. meningitidis 2C4.3 for 30 min and treated with 1 μg mL−1 of recombinant human ANGPTL4, its N-terminal portion (nANGPTL4) or its C-terminal portion (cANGPTL4) for 2 h 30. Caspase-3/7 reagent was added to detect apoptosis in real time over 9 h using the IncuCyte® Live-Cell Analysis System
FIG. 2: Vascular protection is conferred by the N-terminal part of ANGPTL4. A, Schematic representation of ANGPTL4 structure. ANGPTL4 contains a N-terminal portion (nANGPTL4, aa 26-164) linked to a C-terminal portion (cANGPTL4, aa 164-406) by a cleavable linker. nANGPTL4 contains a highly conserved lipoprotein lipase (LPL) binding domain (aa 44-55), two cysteines on position 76 and 80 involved in protein oligomerization and a coiled-coil domain (aa 100-143). The C-terminal portion encodes a fibrinogen-like domain. B, HDMECs were infected with Nm 2C4.3 for 30 min and treated with 1 μg/mL of recombinant human ANGPTL4, nANGPTL4 or cANGPTL4 for 2 h 30. Cells were fixed and stained for cellular actin, VE-cadherin and DAPI and analyzed by fluorescent microscopy. B. Quantifications of VE-cadherin enrichment at intercellular junctions and of intercellular spaces area were performed on 30 fields with Image J software. Kruskal-Wallis test ** P<0.001, *** P<0.0001 of four independent experiments performed in triplicate.
FIG. 3: Vascular protection is conferred by a novel binding motif (aa 66-80) present in the N-terminal part of ANGPTL4. A, the indicated peptides were derived from nANGPTL4. B, HDMECs were infected with Nm 2C4.3 for 30 min and treated with 1 μg/mL of each peptides. Quantifications of VE-cadherin enrichment at intercellular junctions was performed on 30 fields with Image J software.
FIG. 4: Vascular protection is conferred by interaction of nANGPTL4 with Syndecan-4. A, HDMECs were infected with Nm 2C4.3 for 30 min and treated with 1 μg/mL of recombinant human ANGPTL4, nANGPTL4 or cANGPTL4 in the absence or in the presence of anti-SDC4 antibody for 2 h 30. Cells were fixed and stained for cellular actin, VE-cadherin and DAPI and analysed by fluorescent microscopy. Quantifications of VE-cadherin enrichment at intercellular junctions and of intercellular spaces area were performed on 30 fields with Image J software. Kruskal-Wallis test ** P<0.001, **** P<0.00001, ns1 P=0.2172; ns2 P>0.999 of four independent experiments performed in triplicate. B, HDMECs were transfected with small interfering RNA (siRNA) against SDC4 or non-targeting siRNA controls for 48 h, infected with Nm 2C4.3 for 30 min and treated with 1 μg/mL of recombinant human ANGPTL4, for 2 h 30. Quantifications of VE-cadherin enrichment at intercellular junctions and of intercellular spaces area were performed on 30 fields with Image J software. Kruskal-Wallis test ** P<0.001, *** P<0.0001, of two independent experiments performed in triplicate.
The day of infection, a suspension of the bacteria from an overnight culture on GCB agar plate was adjusted to OD600=0.05 and incubated for 2 h at 37° C. in a pre-warmed cell culture medium. Cells were infected with bacteria at a multiplicity of infection (MOI) of 100 bacteria per cell (OD=0.1) for 30 minutes, washed twice to remove non-adherent bacteria and infection was allowed to proceed for various periods of time. Cells were then washed and fixed in 4% paraformaldehyde for immunofluorescence analysis. […]

[2] = system: SCID mice grafted with human skin infected with Nm 2C4.3; assay: Vascular lesions in SCID mice grafted with human skin infected with N. meningitidis (4 h); format: in vivo; conditions: data not shown
Protocol: FIG. 7: ANGPTL4 reduces signs of thrombosis, vascular injury and inflammation. A-D, SCID mice grafted with human skins were infected intravenously with Nm 2C4.3 wild-type strain (5×10^6 bacteria) or left uninfected. A period of 30 min or 2 h after bacterial challenge, mice received 1 μg of recombinant human ANGPTL4, nANGPTL4 or cANGPTL4 intravenously or the vehicle as a control. Mice were killed at 4 h post-challenge. This experiment was performed twice with n=3 or 4 mice per group, using skin from two different donors. A, A schematic representation of the protocols used in vivo. B, Control bacteraemia 4 h post-infection (mean±s.e.m.). C, Bacterial colonization within the skin grafts as assessed by immunofluorescence analysis was quantified using ImageJ software as the ratio between bacterial surface colonization and the lumen surface of the vessels. A total of 30-50 vessels per mouse were analysed. Error bars show mean±s.e.m. D, Thrombus formation within the skin grafts was assessed by immunofluorescence analysis and quantified using ImageJ as the ratio between thrombus surfaces and the lumen surface of the vessels. A total of 30-50 vessels per mouse were analysed. Error bars show mean±s.e.m.; *** P<0.0001; ns P=0.0541 two-tailed Student's t-test.
Six-week-old CB17/Icr-Prkdcscid female mice were obtained from Janvier Labs. Human skin tissues were obtained from adult patients undergoing plastic surgery in the Service de Chirurgie Plastique et Reconstructive of the Groupe Hospitalier Saint-Joseph. […] Experimental procedures were performed as previously described in accordance with the guidelines of the Institut National de la Santé et de la Recherche Médicale and conformed to the European ethical legislation (Directive 2010/63/EU). The experimental protocol was approved by the Animal Experimentation Ethics Committee of the Université Paris Descartes (consent forms CEEA34.O.J.L.039.12 and 2018012515596498). […]. A skin flap was created and a full thickness human skin graft was placed onto the wound bed. The transplants were held in place with 6-0 non-absorbable monofilament suture materials, and the flap was then sutured above the transplant. Grafted mice were infected 4-6 weeks after human skin transplantation. N. meningitidis was grown overnight at 37° C. on GCB agar plates prepared without iron and supplemented with 15 μM deferoxamine (Desferal, Novartis). Bacterial colonies were harvested and cultured in RPMI media with 1% BSA medium and 0.06 μM deferoxamine with gentle agitation to reach the exponential phase of growth. Bacteria were then resuspended in physiological saline solution. Mice were infected intravenously with 200 μl (5×10^6 bacteria) of this bacterial suspension. A 10 mg dose of human holotransferrin (R&D Systems) was administered intraperitoneally just before infection. Mice were killed at 4 h after infection. Human skin grafts were carefully collected using a sterile cutter. The tissue was washed in PBS and fixed overnight at 4° C. in 4% paraformaldehyde in phosphate buffer. After washing in phosphate buffer, the specimens were embedded in OCT medium and then frozen at −80° C. Sections of the dermis (7 μm thick) were immobilized on Superfrost Plus microscope slides and subjected to immunofluorescence analysis. Sections were incubated with the primary antibodies for 1 h in PBS/3% BSA then DAPI was added to Alexa-conjugated secondary antibodies for 1 h. After additional washing, coverslips were mounted in glycergel (Dako) and were further analysed using a slide scanner (Lamina, Perkin Elmer). Analysis of the images was performed using ImageJ software (NIH). […]

Molecule	protective effect on monolayer integrity (adherens junctions, cell detachment) of infected HDMECs [1]	protective effects on vascular alteration, thrombosis or the release of inflammatory markers [2]
RTRSQLSALERRLSA (Peptide P7)	no effect	
REHAERTRSQLSALERRLSACGSACQGT (Peptide P4)	as efficient as P1 in providing protection	
SALERRLSACGSAC [Peptide P13]	inhibits infection-induced damages	
PEVLHSLQTQLKAQNSRIQQLFHKVAQQQRHLEKQHLRIQHLQSQFGLLD (Peptide P2)	no significant effect	
REHAERTRSQLSALERRL (Peptide P5)	no effect	
LSALERRLSACGS [Peptide P12]	inhibits infection-induced damages	
WDEMNVLAHGLLQLGQGLREHAERTRSQLSALERRLSAAGSAAQGT (Peptide P1 C76A, C80A) [Peptide P1 C76A/C80A]	efficiently provided cytoprotection to infection-induced damages	
LSALERRLSA (Peptide P8)	no effect	
QLSALERRLSACGSAC (Peptide P6)	completely inhibited infection-induced damages	
WDEMNVLAHGLLQLGQGL (Peptide P3)	no protective effects	
B1	no protective effect	no protective effects
B2	no protective effect	no protective effects
